Results from article PMC2001498, “Effects of transplantation and resection of a radiation-induced rat insulinoma on glucose homeostasis and the endocrine pancreas” (British Journal of Cancer, 1986).
Where a name gives a salt, the structure may show the parent alone.

Tested on: pancreatic B cell function
Assay: Plasma insulin response to intraperitoneal arginine after tumour resection
Details: plasma insulin at 0, 30 and 60 min, groups of 6 rats

N=C(N)NCCC[C@H](N)C(=O)O [arginine, arginine hydrochloride]
plasma insulin response to arginine, 1 day after tumour resection (arginine hydrochloride 2 g kg-1 i.p. in 0.9% NaCl, ex-tumour bearing rats 1 day after resection): failed to evoke a plasma insulin response | insulin response to arginine, 12 days after tumour resection (arginine hydrochloride 2 g kg-1 i.p., ex-tumour bearing rats 12 days after resection): impaired
